Assay results taken from US20210267978A1, “NANOPARTICLE FORMULATIONS OF IKE AND METHODS OF USE THEREOF” (The Trustees of Columbia University in the City of New York, priority 2018, published 2021).

Tests used:
SUDHL6 cells = assay: Immunofluorescence of MDA (mAb 1F83) on cells; assay type: cell-based; conditions: 10 μM IKE for 6 hours vs DMSO
Description: SUDHL-6 cells were treated with IKE. The cells were harvested by centrifugation and washed with PBS once. The cells were resuspended in PBS, fixed by adding equal volume of 4% paraformaldehyde (PFA), and incubated at room temperature for 15 min. The cells were washed with PBS/0.1% Tween 20 (PBST) twice, resuspended in 10% goat serum (ThermoFisher 50197Z) for 1 h. The cells were incubated with mouse mAb 1F83, which specifically recognizes malondialdehyde (MDA)-lysine adduct 4-methyl-1,4-dihydropyridine-3,5-dicarbaldehyde (MDHDC) (Yamada et al. 2001, Hyvarinen et al. 2014) (1:100 dilution) overnight at 4° C. The cells were washed with PBS three times by centrifugation. The cells were incubated with goat anti-mouse IgG H&L (Alexa Fluor 647) (Abcam ab150115) (1:1000) at room temperature for 1 h. The cells were washed with PBST twice by centrifugation, then resuspended in PBS in 24-well plate with poly-lysine-(Sigma Aldrich P4832)-coated cover slips and centrifuged at 1,000×g for 10 min. […] When applicable, line-scan analysis was performed on representative confocal microscopy images using Zeiss LSM software to qualitatively visualize fluorescence overlap. The intensity above threshold of the fluorescent signal of the bound antibodies was analyzed using NIH ImageJ software. Data were expressed as fold change compared with the vehicle.

[1] = tested on: SUDHL6 xenograft tumor tissue; assay: Immunofluorescence on paraffin-embedded tumor sections after one IKE dose; assay type: in vivo, NCG mice; conditions: 4 h after one dose of IKE
Description: NCG mice 6-weeks of age were injected with 10 million SUDHL-6 cells subcutaneously. Visible tumors appeared after 2 weeks. Tumor size was measured by electronic caliper every 2 days and calculated using the formula: 0.5×length×width^2. After another 2 weeks, mice were randomly separated into group of 3 mice per cage with roughly tumor size (1200 mm^3). Mice were dosed at 50 mg/kg IKE, 22 mg/kg IKE, 22 mg/kg IKE PEG-PLGA nanoparticles (equal to 600 mg/kg PEG-PLGA) using IP at one time and samples were collected at 0, 1, 2, 3, 4, 6, and 24 h with three mice per time point. Mice were dosed with Vehicle 1 and Vehicle 2 (600 mg/kg PEG-PLGA) by IP and samples were collected at 24 h. Mice were euthanized using a CO2 gas chamber before xenograft dissection and cardio puncture. Plasma samples were collected and analyzed as described above. […] After drying, the samples were resuspended in 100 μL of methanol and analyzed on the LC-MS with each sample analyzed twice. […] The concentration of IKE in the sample was determined by comparison against a standard curve of IKE in the range of 25 to 2,500 ng/mL. […] Pharmacokinetics parameters of IKE were assessed using Prism fitted with Lognormal of one phase exponential decay. […]
Tumor tissue was fixed in 4% paraformaldehyde (PFA) for 24 h at 4° C. followed by washing three times with PBS. […] Then the above steps were followed for staining and quantification.

CC(C)Oc1ccc(C(=O)Cn2ccnc2)cc1-n1c(CN2CCN(C(=O)COc3ccc(Cl)cc3)CC2)nc2ccccc2c1=O [IKE, Imidazole ketone erastin]
MDA immunofluorescence intensity increase (SUDHL6 cells): 3.4 fold | increase of 8-OHdG (fluorescence intensity) relative to vehicle [1]: 1.5 fold | increase of dihydropyridine-MDA-lysine adducts (fluorescence intensity) relative to vehicle [1]: 1.6 fold
